Measured values reported in ChEMBL document CHEMBL1201862, “PubChem BioAssay data set” (2004).
Active and inactive are the calls of the source.

Tests used:
[1] = molecular target: Intestinal-type alkaline phosphatase (Mus musculus, UniProt P24822); test: PubChem AID 488875; assay type: functional
[2] = molecular target: T1, Alkaline phosphatase, tissue-nonspecific isozyme (Homo sapiens, UniProt P05186); test: activation of tissue-nonspecific alkaline phosphatase – biochemical, TNAP isozyme, human IAP uHTS hits, selectivity assay for human IAP activator project, dose response (AID 488886); assay type: functional;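 note: potency of compounds raising TNAP activity as a selectivity check on IAP activators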
T1 sequence (P05186 whole entry): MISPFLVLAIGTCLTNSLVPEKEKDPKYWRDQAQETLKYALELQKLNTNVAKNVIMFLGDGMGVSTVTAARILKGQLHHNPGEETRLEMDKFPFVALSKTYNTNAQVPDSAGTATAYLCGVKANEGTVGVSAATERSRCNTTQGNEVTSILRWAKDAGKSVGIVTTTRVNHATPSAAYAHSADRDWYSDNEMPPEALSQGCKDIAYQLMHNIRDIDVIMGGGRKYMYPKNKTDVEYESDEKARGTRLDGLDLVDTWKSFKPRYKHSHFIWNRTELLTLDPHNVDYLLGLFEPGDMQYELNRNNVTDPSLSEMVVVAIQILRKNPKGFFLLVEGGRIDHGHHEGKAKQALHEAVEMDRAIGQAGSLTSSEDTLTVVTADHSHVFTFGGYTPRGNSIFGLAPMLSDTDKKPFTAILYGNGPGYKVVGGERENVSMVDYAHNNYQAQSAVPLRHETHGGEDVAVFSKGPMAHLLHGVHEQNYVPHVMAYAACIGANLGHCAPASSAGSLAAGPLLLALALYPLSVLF

[3] = molecular target: T2, Intestinal-type alkaline phosphatase (Homo sapiens, UniProt P09923); test: activation of human intestinal alkaline phosphatase – biochemical, luminescent, uHTS hits, set 2, dose response (AID 488817); assay type: functional;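 note: potency of activators that raise enzyme activity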
T2 sequence (P09923 whole entry): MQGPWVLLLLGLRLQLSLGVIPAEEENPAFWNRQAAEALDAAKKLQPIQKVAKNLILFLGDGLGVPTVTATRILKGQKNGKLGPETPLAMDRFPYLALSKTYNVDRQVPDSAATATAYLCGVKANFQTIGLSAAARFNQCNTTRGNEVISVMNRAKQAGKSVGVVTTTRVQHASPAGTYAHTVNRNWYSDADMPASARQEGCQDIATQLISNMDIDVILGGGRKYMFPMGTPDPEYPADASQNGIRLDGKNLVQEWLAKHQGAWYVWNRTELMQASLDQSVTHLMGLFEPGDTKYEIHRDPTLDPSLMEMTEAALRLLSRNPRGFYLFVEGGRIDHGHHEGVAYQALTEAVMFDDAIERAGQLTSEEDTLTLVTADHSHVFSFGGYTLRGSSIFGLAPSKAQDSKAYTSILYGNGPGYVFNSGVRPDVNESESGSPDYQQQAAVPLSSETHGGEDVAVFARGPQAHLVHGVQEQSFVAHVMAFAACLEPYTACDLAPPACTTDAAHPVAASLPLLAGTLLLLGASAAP

[4] = molecular target: T2, Intestinal-type alkaline phosphatase; test: human intestinal alkaline phosphatase activators, dose response, biochemical, luminescence, uHTS hits (AID 463120); assay type: functional
[5] = molecular target: T3, Lysine-specific demethylase 4C (Homo sapiens, UniProt Q9H3R0); test: inhibition of JMJD2C H3K9me3 demethylation – biochemical, DELFIA europium, cherry-picked samples, dose response (AID 488835); assay type: functional
T3 sequence (Q9H3R0 whole entry): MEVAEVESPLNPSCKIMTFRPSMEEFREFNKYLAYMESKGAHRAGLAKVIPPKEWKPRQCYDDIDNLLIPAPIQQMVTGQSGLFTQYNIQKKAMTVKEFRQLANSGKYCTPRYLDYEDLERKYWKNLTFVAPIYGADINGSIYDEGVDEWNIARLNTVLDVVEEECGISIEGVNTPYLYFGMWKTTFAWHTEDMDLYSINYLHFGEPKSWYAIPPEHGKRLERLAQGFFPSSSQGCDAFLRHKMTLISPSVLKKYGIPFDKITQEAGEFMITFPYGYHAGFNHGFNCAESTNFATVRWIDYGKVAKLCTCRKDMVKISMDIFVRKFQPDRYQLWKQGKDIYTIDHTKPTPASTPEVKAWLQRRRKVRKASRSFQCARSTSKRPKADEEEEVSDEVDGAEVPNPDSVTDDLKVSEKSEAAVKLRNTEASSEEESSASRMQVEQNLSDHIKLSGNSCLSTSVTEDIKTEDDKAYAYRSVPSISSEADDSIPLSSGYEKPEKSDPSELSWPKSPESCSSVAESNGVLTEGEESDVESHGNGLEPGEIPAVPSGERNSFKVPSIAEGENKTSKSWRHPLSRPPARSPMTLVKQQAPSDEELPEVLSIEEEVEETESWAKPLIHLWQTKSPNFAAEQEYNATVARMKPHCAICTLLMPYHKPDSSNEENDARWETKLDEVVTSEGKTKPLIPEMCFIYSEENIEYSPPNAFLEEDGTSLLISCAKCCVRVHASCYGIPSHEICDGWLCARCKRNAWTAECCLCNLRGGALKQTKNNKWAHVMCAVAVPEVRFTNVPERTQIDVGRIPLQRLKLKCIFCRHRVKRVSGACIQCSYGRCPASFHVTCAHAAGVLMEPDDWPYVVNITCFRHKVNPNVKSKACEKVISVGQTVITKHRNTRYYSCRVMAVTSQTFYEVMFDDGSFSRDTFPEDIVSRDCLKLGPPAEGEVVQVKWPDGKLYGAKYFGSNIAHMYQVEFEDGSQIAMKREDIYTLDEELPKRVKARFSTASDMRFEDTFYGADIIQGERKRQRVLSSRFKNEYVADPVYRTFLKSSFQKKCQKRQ

Vero = test: viability of Vero cells under compound – cytotoxicity control for flavivirus capping enzyme inhibitors (AID 588742); assay type: functional; details: Chlorocebus sabaeus
Streptococcus = test: GAS UMAA2166 growth inhibition – luminescence, BacTiterGlo, counter-screen for streptokinase expression inhibitor project, dose response (AID 1915); assay type: functional, organism-based;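 note: potency for reduction of bacterial viability or growth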
[6] = test system: Streptococcus sp. 'group A'; test: Streptococcus pyogenes SK(-)GAS viability under kanamycin – luminescence, BacTiterGlo, confirmation, counter-screen for streptokinase expression inhibitor project, dose response (AID 1900); assay type: functional, organism-based
Caspase-9 = Caspase-9 (Homo sapiens, UniProt P55211); test: inhibitors of purified CASP9 protease – biochemical, fluorescence, plate reader, cherry-picked samples, selectivity assay for caspase-6 inhibitor project, dose response (AID 743293)
Caspase-9, sequence (P55211 1-315 limits assumed): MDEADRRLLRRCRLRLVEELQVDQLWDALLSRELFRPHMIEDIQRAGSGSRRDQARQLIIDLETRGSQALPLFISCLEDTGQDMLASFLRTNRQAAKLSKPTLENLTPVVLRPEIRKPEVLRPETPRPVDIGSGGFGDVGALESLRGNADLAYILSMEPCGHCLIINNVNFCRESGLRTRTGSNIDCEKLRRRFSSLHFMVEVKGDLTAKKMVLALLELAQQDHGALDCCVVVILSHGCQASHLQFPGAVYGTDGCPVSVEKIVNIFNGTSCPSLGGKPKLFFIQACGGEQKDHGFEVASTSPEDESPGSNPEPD
Caspase-9, sequence (P55211 331-416 limits assumed): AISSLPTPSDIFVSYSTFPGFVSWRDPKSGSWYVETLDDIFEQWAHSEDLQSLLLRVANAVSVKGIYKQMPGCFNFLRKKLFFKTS

[7] = fluconazole-exposed Candida albicans growth modulators – fluorescence, retest, confirmation (AID 2467); assay type: functional, cell-based
Caspase-8 = Caspase-8 (Homo sapiens, UniProt Q14790); test: inhibitors of purified CASP8 protease – biochemical, Z-IETD-R110 fluorescence, cherry-picked samples, selectivity assay for caspase-6 inhibitor project, dose response (AID 743294)
Caspase-8, sequence (Q14790 217-374 limits assumed): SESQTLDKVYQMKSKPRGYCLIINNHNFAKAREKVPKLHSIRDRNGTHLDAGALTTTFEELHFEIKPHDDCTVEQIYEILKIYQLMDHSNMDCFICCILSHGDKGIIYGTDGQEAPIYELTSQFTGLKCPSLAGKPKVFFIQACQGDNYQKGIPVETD
Caspase-8, sequence (Q14790 385-479 limits assumed): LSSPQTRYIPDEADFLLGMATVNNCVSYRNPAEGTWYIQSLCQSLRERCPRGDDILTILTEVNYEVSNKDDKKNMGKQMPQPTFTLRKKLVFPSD

Caspase-3 = molecular target: T4, Caspase-3 (Homo sapiens, UniProt P42574); test: human caspase-3 protease activity blockade – biochemical, fluorescence, cherry-picked samples, selectivity assay for caspase-6 allosteric inhibitor project, dose response (AID 743291)
T4 sequence (P42574 whole entry): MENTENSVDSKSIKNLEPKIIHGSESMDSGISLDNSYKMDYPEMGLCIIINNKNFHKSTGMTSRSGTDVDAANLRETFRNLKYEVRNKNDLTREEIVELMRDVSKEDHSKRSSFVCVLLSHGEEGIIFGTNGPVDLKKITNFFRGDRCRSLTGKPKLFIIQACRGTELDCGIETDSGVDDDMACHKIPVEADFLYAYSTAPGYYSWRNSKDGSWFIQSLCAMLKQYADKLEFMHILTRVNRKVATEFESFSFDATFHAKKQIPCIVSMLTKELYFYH

Caspase-6 = molecular target: T5, Caspase-6 (Homo sapiens, UniProt P55212); test: inhibition of CASP6 peptide cleavage – biochemical, VEID-R110 fluorescence, cherry-pick, dose response (AID 720632)
T5 sequence (P55212 whole entry): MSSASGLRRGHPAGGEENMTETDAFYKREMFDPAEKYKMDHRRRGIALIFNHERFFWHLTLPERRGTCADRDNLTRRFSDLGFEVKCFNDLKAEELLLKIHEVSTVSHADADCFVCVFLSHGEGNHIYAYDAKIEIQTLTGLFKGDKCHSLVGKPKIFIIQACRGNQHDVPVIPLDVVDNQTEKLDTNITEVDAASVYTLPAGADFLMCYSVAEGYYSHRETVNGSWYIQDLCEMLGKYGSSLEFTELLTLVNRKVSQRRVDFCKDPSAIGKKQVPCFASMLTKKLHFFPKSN

[8] = molecular target: 1-phosphatidylinositol 4,5-bisphosphate phosphodiesterase gamma-1 (Homo sapiens, UniProt P19174); test: Counterscreen for inhibitors of phospholipase C isozymes (PLC-B3): Fluorescence-based biochemical high throughput dose response assay to identify inhibitors of phospholipase C isozymes (PLC-gamma1).
[9] = molecular target: Lysine-specific demethylase 4A (Homo sapiens, UniProt O75164); test: inhibition of JMJD2A H3K9me3 demethylation – biochemical, DELFIA europium, cherry-picked samples, selectivity assay for GASC-1 inhibitor project, dose response (AID 488840)
Troponin, cardiac muscle = Troponin, cardiac muscle (Homo sapiens, UniProt P19429+P45379+P63316); test: compounds desensitizing RTF to calcium – biochemical, fluorescence, cardiac regulated thin filaments, triplicate IC50, dose response (AID 504742); assay type: protein-complex assay
[10] = molecular target: Heat shock protein HSP 90-alpha (Homo sapiens, UniProt P07900); assay type: functional, organism-based
[11] = molecular target: Matrix metalloproteinase-14 (Homo sapiens, UniProt P50281); test: Dose Response confirmation of uHTS hits for a small molecule inhibitors of MT1-MMP activation in a fluorescence assay set 2.; assay type: functional
[12] = molecular target: 1-phosphatidylinositol 4,5-bisphosphate phosphodiesterase beta-3 (Homo sapiens, UniProt Q01970); test: Fluorescence-based biochemical high throughput dose response assay to identify inhibitors of phospholipase C isozymes (PLC-B3).
1-phosphatidylinositol 4,5-bisphosphate phosphodiesterase beta-3, sequence (Q01970 whole entry): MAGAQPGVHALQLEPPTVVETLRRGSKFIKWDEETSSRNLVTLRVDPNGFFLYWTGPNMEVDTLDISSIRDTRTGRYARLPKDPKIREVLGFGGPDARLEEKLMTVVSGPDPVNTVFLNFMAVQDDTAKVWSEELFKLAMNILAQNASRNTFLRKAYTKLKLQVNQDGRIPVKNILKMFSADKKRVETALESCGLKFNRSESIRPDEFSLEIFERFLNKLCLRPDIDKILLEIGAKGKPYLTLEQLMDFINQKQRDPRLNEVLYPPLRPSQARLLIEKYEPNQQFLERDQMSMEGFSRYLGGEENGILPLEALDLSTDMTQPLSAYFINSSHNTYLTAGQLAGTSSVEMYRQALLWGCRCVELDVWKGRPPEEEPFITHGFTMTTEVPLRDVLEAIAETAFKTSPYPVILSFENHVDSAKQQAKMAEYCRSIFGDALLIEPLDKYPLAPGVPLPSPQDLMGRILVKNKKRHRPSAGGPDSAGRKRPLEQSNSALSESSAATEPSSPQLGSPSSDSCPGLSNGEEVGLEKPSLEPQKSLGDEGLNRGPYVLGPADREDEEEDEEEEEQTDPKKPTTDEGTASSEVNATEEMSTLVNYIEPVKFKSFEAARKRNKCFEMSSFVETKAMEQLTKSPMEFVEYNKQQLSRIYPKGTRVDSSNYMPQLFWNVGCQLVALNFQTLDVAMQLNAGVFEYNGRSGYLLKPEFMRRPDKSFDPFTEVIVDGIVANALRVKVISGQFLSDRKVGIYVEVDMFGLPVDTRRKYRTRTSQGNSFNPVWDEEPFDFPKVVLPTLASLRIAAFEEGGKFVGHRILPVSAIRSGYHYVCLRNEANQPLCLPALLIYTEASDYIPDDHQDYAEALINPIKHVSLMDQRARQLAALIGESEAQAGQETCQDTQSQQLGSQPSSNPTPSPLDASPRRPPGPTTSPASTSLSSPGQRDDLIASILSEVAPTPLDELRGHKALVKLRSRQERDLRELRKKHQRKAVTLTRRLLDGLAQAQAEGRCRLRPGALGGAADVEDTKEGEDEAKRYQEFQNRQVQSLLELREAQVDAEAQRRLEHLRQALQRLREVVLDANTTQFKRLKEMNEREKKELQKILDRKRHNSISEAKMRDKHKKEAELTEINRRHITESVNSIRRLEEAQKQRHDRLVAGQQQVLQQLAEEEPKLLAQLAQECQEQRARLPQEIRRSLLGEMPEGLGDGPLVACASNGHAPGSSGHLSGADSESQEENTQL

[13] = NIH-3T3 fibroblast cytotoxicity, dose response, cytotoxicity control, cell-based, fluorescence, Alamar Blue, secondary assay (AID 2327); assay type: functional;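 note: NIH-3T3 mouse fibroblasts cultured with fluconazole at 8 µg/mL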
Streptokinase A = molecular target: T6, Streptokinase A (Streptococcus pyogenes serotype M1, UniProt P10520); test: viability-normalized secreted streptokinase activity reduction – plasminogen activation absorbance, OD405, dose response (AID 1914); assay type: functional, Streptococcus pyogenes M1 GAS;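 note: secreted streptokinase activity via plasminogen activation per viability signal from cell pellet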
T6 sequence (P10520 whole entry): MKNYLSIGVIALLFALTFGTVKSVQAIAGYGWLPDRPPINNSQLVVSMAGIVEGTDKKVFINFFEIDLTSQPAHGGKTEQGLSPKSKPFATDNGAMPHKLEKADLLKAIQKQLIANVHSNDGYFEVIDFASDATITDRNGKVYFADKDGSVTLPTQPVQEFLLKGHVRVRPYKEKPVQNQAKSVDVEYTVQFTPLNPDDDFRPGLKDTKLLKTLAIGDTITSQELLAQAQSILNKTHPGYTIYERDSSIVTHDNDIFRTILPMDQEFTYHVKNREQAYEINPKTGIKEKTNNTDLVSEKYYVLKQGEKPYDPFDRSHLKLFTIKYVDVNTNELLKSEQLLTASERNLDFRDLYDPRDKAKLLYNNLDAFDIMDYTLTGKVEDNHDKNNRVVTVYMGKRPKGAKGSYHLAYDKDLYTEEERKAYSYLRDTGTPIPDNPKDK

Caspase-7 = Caspase-7 (Homo sapiens, UniProt P55210); test: caspase-7 enzyme inhibition, selectivity check – biochemical, DEVD-R110 fluorescence, cherry-pick, selectivity assay for caspase-6 inhibitor project, dose response (AID 743295); assay type: functional
Large T antigen = Large T antigen (Simian virus 40, UniProt P03070); assay type: functional, Betapolyomavirus macacae;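 note: Confirmatory-stage PubChem screen for compounds that inhibit SV40 T antigen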
Large T antigen, sequence (P03070 whole entry): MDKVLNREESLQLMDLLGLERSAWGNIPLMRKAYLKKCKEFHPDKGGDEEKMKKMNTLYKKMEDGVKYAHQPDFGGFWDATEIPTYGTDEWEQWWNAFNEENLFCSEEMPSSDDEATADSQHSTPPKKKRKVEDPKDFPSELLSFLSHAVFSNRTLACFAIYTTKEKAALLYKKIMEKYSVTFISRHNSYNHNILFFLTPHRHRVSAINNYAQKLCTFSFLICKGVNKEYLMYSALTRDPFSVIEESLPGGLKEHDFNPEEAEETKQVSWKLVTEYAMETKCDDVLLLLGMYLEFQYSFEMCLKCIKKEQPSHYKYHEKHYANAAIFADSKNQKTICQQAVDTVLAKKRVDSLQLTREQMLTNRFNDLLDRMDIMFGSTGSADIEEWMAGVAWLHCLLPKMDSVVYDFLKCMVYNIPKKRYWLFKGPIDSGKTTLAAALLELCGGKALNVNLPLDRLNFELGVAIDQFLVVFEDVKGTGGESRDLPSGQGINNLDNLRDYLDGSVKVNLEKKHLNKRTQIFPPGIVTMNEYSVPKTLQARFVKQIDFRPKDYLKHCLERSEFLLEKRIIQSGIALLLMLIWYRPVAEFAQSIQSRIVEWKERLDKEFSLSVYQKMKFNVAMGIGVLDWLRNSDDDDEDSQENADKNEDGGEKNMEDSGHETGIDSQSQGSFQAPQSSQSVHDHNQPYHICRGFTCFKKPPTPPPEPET

NS3 = NS3 (Hepatitis C virus, UniProt A3EZJ3); test: PubChem AID 2173; parameters: species or system Hepacivirus hominis
NS3, sequence (A3EZJ3 whole entry): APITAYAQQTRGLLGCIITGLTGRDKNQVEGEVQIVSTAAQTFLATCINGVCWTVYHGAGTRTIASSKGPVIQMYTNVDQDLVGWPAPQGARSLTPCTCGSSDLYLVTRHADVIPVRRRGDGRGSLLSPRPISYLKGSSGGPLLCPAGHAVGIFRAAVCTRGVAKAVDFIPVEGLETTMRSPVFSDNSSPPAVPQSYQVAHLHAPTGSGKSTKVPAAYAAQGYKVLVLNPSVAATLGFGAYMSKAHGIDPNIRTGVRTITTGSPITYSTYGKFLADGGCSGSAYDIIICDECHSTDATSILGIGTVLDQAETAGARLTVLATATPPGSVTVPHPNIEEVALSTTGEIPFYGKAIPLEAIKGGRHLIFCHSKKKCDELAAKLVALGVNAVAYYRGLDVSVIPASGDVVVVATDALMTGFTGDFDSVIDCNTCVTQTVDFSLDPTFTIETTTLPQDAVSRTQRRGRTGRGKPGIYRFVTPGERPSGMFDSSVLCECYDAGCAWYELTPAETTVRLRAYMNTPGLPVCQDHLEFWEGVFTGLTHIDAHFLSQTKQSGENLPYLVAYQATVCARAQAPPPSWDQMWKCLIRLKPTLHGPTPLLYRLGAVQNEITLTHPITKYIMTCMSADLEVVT

[14] = molecular target: RNA-editing ligase 1, mitochondrial (Trypanosoma brucei brucei, UniProt P86926); test: inhibition of trypanosome RNA editing ligase – biochemical, fluorescence, Trypanosoma brucei, dose response (AID 1117295); assay type: functional
RNA-editing ligase 1, mitochondrial, sequence (P86926 whole entry): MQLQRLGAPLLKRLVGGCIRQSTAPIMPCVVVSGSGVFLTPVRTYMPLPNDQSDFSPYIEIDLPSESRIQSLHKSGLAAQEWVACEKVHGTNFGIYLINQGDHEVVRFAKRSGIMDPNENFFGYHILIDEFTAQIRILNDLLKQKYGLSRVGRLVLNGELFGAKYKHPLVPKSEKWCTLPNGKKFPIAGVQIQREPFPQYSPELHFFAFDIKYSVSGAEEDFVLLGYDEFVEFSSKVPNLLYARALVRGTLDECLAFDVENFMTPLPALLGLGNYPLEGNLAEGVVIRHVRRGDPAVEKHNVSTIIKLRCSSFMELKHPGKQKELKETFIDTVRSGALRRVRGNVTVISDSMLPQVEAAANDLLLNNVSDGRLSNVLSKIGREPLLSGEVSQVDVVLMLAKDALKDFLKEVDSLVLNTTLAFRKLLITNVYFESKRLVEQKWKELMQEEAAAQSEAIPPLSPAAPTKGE

Phosphomannomutase 2 = Phosphomannomutase 2 (Homo sapiens, UniProt O15305); test: Counter screen SAR assay for PMM2 inhibitors via a fluorescence intensity assay. [Related pubchem assays (depositor defined):AID1545, AID1574]
[15] = molecular target: T7, Mannose-6-phosphate isomerase (Homo sapiens, UniProt P34949); test: phosphomannose isomerase inhibition – biochemical, fluorescence intensity, confirmation (AID 1535)
T7 sequence (P34949 whole entry): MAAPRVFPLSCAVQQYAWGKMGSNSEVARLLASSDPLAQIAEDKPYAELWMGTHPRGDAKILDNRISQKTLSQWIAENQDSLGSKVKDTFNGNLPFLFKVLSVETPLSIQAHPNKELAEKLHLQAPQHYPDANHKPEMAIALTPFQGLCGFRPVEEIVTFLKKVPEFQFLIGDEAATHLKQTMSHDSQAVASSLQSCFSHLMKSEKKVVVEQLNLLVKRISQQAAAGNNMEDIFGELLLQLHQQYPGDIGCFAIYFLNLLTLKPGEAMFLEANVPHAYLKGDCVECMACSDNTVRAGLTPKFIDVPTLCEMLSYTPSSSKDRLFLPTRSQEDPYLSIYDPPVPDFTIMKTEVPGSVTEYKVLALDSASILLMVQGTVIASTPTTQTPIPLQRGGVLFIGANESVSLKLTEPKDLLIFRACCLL

Intestinal-type alkaline phosphatase (Mus musculus, UniProt P24822), sequence (P24822 whole entry): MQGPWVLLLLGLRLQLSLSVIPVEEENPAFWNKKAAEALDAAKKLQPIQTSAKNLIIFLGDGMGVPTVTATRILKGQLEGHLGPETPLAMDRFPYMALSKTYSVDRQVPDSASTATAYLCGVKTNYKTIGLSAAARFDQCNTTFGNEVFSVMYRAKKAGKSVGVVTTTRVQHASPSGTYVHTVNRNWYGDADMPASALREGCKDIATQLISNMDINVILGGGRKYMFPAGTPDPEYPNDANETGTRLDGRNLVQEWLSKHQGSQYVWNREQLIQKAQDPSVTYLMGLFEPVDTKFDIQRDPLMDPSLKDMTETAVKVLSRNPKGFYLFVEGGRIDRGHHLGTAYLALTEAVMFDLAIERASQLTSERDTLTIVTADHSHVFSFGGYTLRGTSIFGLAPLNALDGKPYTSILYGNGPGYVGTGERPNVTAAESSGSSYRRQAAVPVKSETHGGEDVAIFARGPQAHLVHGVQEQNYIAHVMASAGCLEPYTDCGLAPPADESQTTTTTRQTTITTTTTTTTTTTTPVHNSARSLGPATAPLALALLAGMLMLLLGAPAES

SMILES: COc1ccccc1CNC(=O)CN(c1ccc(C)cc1)S(=O)(=O)c1c(C)noc1C
- EC50 [1]: 67.5 µM (active)
- EC50 [2]: 76.2 µM (active)
- EC50 [3]: 99 µM (active)
- EC50 [4]: 86 µM (active)

SMILES: O=c1cc2oc3cc(O)c(O)cc3c(-c3ccccc3[N+](=O)[O-])c-2cc1O
- AC50 [5]: 1.97 µM (active)
- CC50 (Vero): 12.2 µM (active)
- EC50 (Streptococcus): 10.2 µM (active)
- EC50 [6]: 7.94 µM (active)
- AC50 (Caspase-9): > 70 µM (inactive)
- EC50 [7]: 1.07 µM (active)
- AC50 (Caspase-8): 41.3 µM (active)
- AC50 (Caspase-3): 0.122 µM (active)
- AC50 (Caspase-6): 0.018 µM (active)
- IC50 [8]: 67.5 µM (inactive)
- AC50 [9]: 2.01 µM (active)
- IC50 (Troponin, cardiac muscle): 1.64 µM (active)
- AC50 [10]: 2.9 µM (active)
- IC50 [11]: 17.9 µM (active)
- IC50 [12]: > 123 µM (inactive)
- EC50 [13]: 8.25 µM (active)
- EC50 (Streptokinase A): 11.2 µM (active)
- AC50 (Caspase-7): 1.33 µM (active)
- IC50 (Large T antigen): 5.91 µM (active)
- IC50 (NS3): 0.99 µM (active)
- IC50 [14]: > 96.6 µM (inactive)

SMILES: COc1ccc(/N=c2\ssnc2Cl)cc1OC
- IC50 (Phosphomannomutase 2): > 100 µM (inactive)
- IC50 [15]: 36.7 µM (active)
